Reference: patent US9593305B2, “Differentiation of pluripotent stem cells” (Janssen Biotech, Inc., priority 2008, dated 2017)

System: human embryonic stem cells
Assay: Dose response of activin A and GDF-8, SOX17 intensity (Example 11, Table 11)
Assay type: cell-based
Conditions: Wnt3a day 1, three days
Method: Stock cultures of human embryonic stem cells (1-11 human embryonic stem cell line) were maintained in an undifferentiated, pluripotent state on reduced growth factor […]-coated dishes in MEF conditioned medium with passage on average every four days. Passage was performed by exposing cell cultures to a solution of 1 mg/ml dispase (Invitrogen, Cat #: 17105-041) for 5 to 7 minutes at 37° C. followed by rinsing the monolayer with MEF conditioned culture medium and gentle scraping to recover cell clusters. Clusters were centrifuged at low speed to collect a cell pellet and remove residual dispase. Cell clusters were split at a 1:3 or 1:4 ratio for routine maintenance culture or a 1:1 ratio for immediate assay. All human embryonic stem cell lines were maintained at passage numbers less than 50 and routinely evaluated for normal karyotypic phenotype and for absence of mycoplasma contamination.
Cell clusters used in the assay were evenly resuspended in MEF conditioned medium supplemented with 8 ng/ml bFGF and seeded onto reduced growth factor […]™-coated 96-well Packard VIEWPLATES (PerkinElmer; Cat #6005182) in volumes of 100 μl/well. MEF conditioned medium supplemented with 8 ng/ml bFGF was used for initial plating and expansion. Daily feeding was conducted by aspirating spent culture medium from each well and replacing with an equal volume of fresh medium. Plates were maintained at 37° C., 5% CO2 in a humidified box throughout the duration of assay.
The assay was initiated by aspirating the culture medium from each well and adding back an aliquot (100 μl) of test medium. Test conditions were performed in quadruplicate over a total three-day assay period, feeding on day 1 and day 2 by aspirating and replacing the medium from each well with fresh test medium. Two 12-channel polypropylene basins (Argos technologies, Inc, Cat #: B3135) were used to make the test media containing different concentrations of Activin A (PeproTech; Cat #120-14) or GDF-8 (R&D Systems, Cat #788-G8). Channels numbered 2 through 12 of each basin contained 1 ml assay medium composed of RPMI-1640 medium (Invitrogen; Cat #: 22400) supplemented with 2% Albumin Bovine Fraction V, Fatty Acid Free (FAF BSA) (MP Biomedicals, Inc; Cat #152401) and 8 ng/ml bFGF (PeproTech Inc.; Cat #: 100-18B), and with 20 ng/ml Wnt3a (R&D Systems; Cat #1324-WN/CF) added on day 1, omitted on day 2 and 3. Channel number 1 of each basin contained 1600 ng/ml Activin A or 1600 ng/ml GDF-8, diluted into the same assay medium. One ml of medium was transferred from channel number 1 to channel number 2 and mixed well. A fresh pipette tip was used to transfer one ml of medium from channel number 2 to channel number 3, followed by thorough mixing. The same procedure was repeated in sequence through channel number 11 for each respective basin. Channel number 12 of each basin contained medium without Activin A or GDF-8. By doing this, a series of two-fold test dilutions was created, containing Activin A or GDF-8 at concentrations ranging from 1.6 ng/ml to 1600 ng/ml, for addition to the respective assay wells.
At the conclusion of three days of culture, assay plates were washed once with PBS (Invitrogen; Cat #14190), fixed with 4% paraformaldehyde (Alexis Biochemical; Cat #ALX-350-011) at room temperature for 20 minutes, then washed three times with PBS and permeabilized with 0.5% Triton X-100 (Sigma; Cat #T8760-2) for 20 minutes at room temperature. Cells were washed again three times with PBS and blocked with 4% chicken serum (Invitrogen; Cat #16110082) in PBS for 30 minutes at room temperature. Primary antibody (goat anti-human SOX17; R&D Systems; Cat #AF1924) was diluted 1:100 in 4% chicken serum and added to each well for two hours at room temperature. After washing three times with PBS, Alexa Fluor 488 conjugated secondary antibody (chicken anti-goat IgG; Invitrogen; Cat #A21467) diluted 1:200 in PBS was added to each well. […]

Row | Substance | Normalized SOX17 Intensity, Average (1.56 ng/ml growth factor) | Normalized SOX17 Intensity, Average (3.13 ng/ml growth factor) | Normalized SOX17 Intensity, Average (6.25 ng/ml growth factor) | Normalized SOX17 Intensity, Average (12.50 ng/ml growth factor) | Normalized SOX17 Intensity, Average (25 ng/ml growth factor) | Normalized SOX17 Intensity, Average (50 ng/ml growth factor) | Normalized SOX17 Intensity, Average (100 ng/ml growth factor) | Normalized SOX17 Intensity, Average (200 ng/ml growth factor) | Normalized SOX17 Intensity, Average (400 ng/ml growth factor) | Normalized SOX17 Intensity, Average (800 ng/ml growth factor) | Normalized SOX17 Intensity, Average (1600 ng/ml growth factor) | EC50 (SOX17 intensity, GraphPad Prism)
1 | GDF-8: growth factor GDF-8, also known as myostatin, member of the TGF-β family | 0.00% | 0.10% | 0.70% | 0.90% | 5.10% | 17.60% | 32.70% | 51.30% | 72.20% | 84.90% | 100.00% | 0.1848 µg/mL
2 | Activin A: recombinant human activin A (PeproTech), TGF-beta family member | 0.10% | 3.00% | 18.40% | 50.90% | 73.10% | 85.20% | 90.70% | 100.00% | 100.00% | 100.00% | 100.00% | 0.0139 µg/mL
